Values joined by “and” are separate entries in the source; they are usually repeats but may differ in a detail not shown here. Identical values can stand only once. Where only a bound is given, the exact number is not on record here.

One assay has as its system wild-type HIV-1 strain IIIB. Nature of the assay: microbe, parasite or virus in culture. The assay is classed as cell-based. The conditions noted are these: Human immunodeficiency virus 1, IIIB, MT2.
In turn, `CCOP(=O)(COc1ccc(S(=O)(=O)N(CC(C)C)CC(O)C(Cc2ccc(N)cc2)NC(=O)OC2COC3OCCC23)cc1)OCC` (stereo not drawn) [NH2, OEt] came in with an EC50 of 50 to 500 nM.

The same assay, now with this note: read-out: EC50.
As for `CCOC(=O)[C@H](C)OP(=O)(COc1ccc(C[C@H](NC(=O)O[C@H]2CO[C@H]3OCC[C@H]32)[C@@H](CN(CC(C)C)S(=O)(=O)c2ccc(OC)cc2)OC(=O)[C@H](N)C(C)C)cc1)Oc1ccccc1` (stereo partly drawn), the EC50 was 50 to 500 nM.
On the same count and under the same terms, with `CCOC(=O)[C@H](C)OP(=O)(COc1ccc(C[C@H](NC(=O)O[C@H]2CO[C@H]3OCC[C@H]32)[C@H](O)CN(CC(C)C)S(=O)(=O)c2ccc(COC(=O)[C@H](N)C(C)C)cc2)cc1)Oc1ccccc1` (stereo partly drawn) the figure was 50 to 500 nM; with `CCOC(=O)C(CC)OP(=O)(COc1ccc(CC(NC(=O)OC2COC3OCCC23)C(O)CN(CC(C)C)S(=O)(=O)c2ccc(OC)cc2)cc1)Oc1ccccc1` (mixture of isomers) [drawing 659 R1=OPh R2=mix-Hba-Et], less than 50 nM.
For `CCCCOC(=O)C(CC)NP(=O)(COc1ccc(CC(NC(=O)OC2COC3OCCC23)C(O)CN(CC(C)C)S(=O)(=O)c2ccc(OC)cc2)cc1)Oc1ccccc1` (single isomer, unassigned) [drawing 657 R1=OPh R2=Aba-Bu], the EC50 was < 50 nM and 50 to 500 nM.
For `CCOC(=O)C(CC)NP(=O)(COc1ccc(C[C@H](NC(=O)O[C@H]2CO[C@H]3OCC[C@H]32)[C@H](O)CN(CC(C)C)S(=O)(=O)c2ccc(OC)cc2)cc1)Oc1ccccc1` (single isomer, unassigned) [drawing 657 R1=OPh R2=Aba-Et], the EC50 is < 50 nM and 50 to 500 nM.
For the compound `COc1ccc(S(=O)(=O)N(CC(C)C)C[C@@H](O)[C@H](Cc2ccc(OCP(=O)(Oc3ccccc3)OC(C)C(=O)OC(C)C)cc2)NC(=O)O[C@H]2CO[C@H]3OCC[C@H]32)cc1` (single isomer, unassigned) [drawing 658 R1=OPh R2=Lac-iPr], the EC50 is less than 50 nM.
As for `CCOC(=O)C(C)OP(=O)(CCNc1ccc(CC(NC(=O)OC2COC3OCCC23)C(O)CN(CC(C)C)S(=O)(=O)c2ccc(OC)cc2)cc1)Oc1ccccc1` (single isomer, unassigned) [drawing 706], the EC50 was less than 50 nM.
Consider `CCOC(=O)C(C)OP(=O)(CCNc1ccc(CC(NC(=O)OC2COC3OCCC23)C(O)CN(CC(C)C)S(=O)(=O)c2ccc(OC)cc2)cc1)Oc1ccccc1` (single isomer, unassigned) [drawing 707], for which the concentration for a half-maximal effect (EC50) was less than 50 nM.
Turning to `COc1ccc(S(=O)(=O)N(CC(C)C)CC(O)C(Cc2ccc(OCP(=O)(O)OCc3ccccc3)cc2)NC(=O)OC2COC3OCCC23)cc1` (stereo not drawn) [drawing 651 R1=OH R2=OBn], the concentration for a half-maximal effect (EC50) is 500 to 5000 nM.
For `CCOP(=O)(O)COc1ccc(CC(NC(=O)OC2COC3OCCC23)C(O)CN(CC(C)C)S(=O)(=O)c2ccc(OC)cc2)cc1` (stereo not drawn) [drawing 651 R1=OH R2=OEt], the EC50 is 50 to 500 nM.
Turning to `COc1ccc(S(=O)(=O)N(CC(C)C)C[C@@H](O)[C@H](Cc2ccc(OCP(=O)(Oc3ccccc3)Oc3ccccc3)cc2)NC(=O)O[C@H]2CO[C@H]3OCC[C@H]32)cc1` [drawing 651 R1=OPh R2=OPh], the EC50 is less than 50 nM.
Consider `COc1ccc(S(=O)(=O)N(CC(C)C)C[C@@H](O)[C@H](Cc2ccc(OCP(=O)(OCOC(=O)OC(C)C)OCOC(=O)OC(C)C)cc2)NC(=O)O[C@H]2CO[C@H]3OCC[C@H]32)cc1` [drawing 651 R1=OPoc R2=OPoc], for which the EC50 fell in the range of 500 to 5000 nM.
Regarding `CCOP(=O)(COc1ccc(C[C@H](NC(=O)O[C@H]2CO[C@H]3OCC[C@H]32)[C@H](O)CN(CC(C)C)S(=O)(=O)c2ccc(O)cc2)cc1)OCC` [drawing 652 R1=Et R2=Et], the EC50 was less than 50 nM.
Regarding `CC(C)CN(C[C@@H](O)[C@H](Cc1ccc(OCP(=O)(O)O)cc1)NC(=O)O[C@H]1CO[C@H]2OCC[C@H]21)S(=O)(=O)c1ccc(O)cc1` [drawing 652 R1=OH R2=OH], the EC50 was 500 to 5000 nM.
Still for that read-out and setting: with `CCOC(=O)C(CC)NP(=O)(COc1ccc(C[C@H](NC(=O)O[C@H]2CO[C@H]3OCC[C@H]32)[C@H](O)CN(CC(C)C)S(=O)(=O)c2ccc(OC)cc2)cc1)NC(CC)C(=O)OCC` (stereo partly drawn) [drawing 655 R1=Aba-Et R2=Aba-Et] the figure was less than 50 nM.
Regarding `CCCCOC(=O)C(Cc1ccccc1)NP(=O)(COc1ccc(CC(NC(=O)OC2COC3OCCC23)C(O)CN(CC(C)C)S(=O)(=O)c2ccc(OC)cc2)cc1)NC(Cc1ccccc1)C(=O)OCCCC` (stereo not drawn) [drawing 655 R1=Phe-Bu R2=Phe-Bu], the EC50 was less than 50 nM.
For `CCOC(=O)C(Cc1ccccc1)NP(=O)(COc1ccc(CC(NC(=O)OC2COC3OCCC23)C(O)CN(CC(C)C)S(=O)(=O)c2ccc(OC)cc2)cc1)NC(Cc1ccccc1)C(=O)OCC` (stereo not drawn) [drawing 655 R1=Phe-Et R2=Phe-Et], the EC50 is less than 50 nM.
In the case of `CCOC(=O)COP(=O)(COc1ccc(C[C@H](NC(=O)O[C@H]2CO[C@H]3OCC[C@H]32)[C@H](O)CN(CC(C)C)S(=O)(=O)c2ccc(OC)cc2)cc1)OCC(=O)OCC` [drawing 656 R1=Glc-Et R2=Glc-Et], the EC50 is 500 to 5000 nM.
The same measure, in the same setting: in the case of `CCOC(=O)C(C)NP(=O)(COc1ccc(C[C@H](NC(=O)O[C@H]2CO[C@H]3OCC[C@H]32)[C@H](O)CN(CC(C)C)S(=O)(=O)c2ccc(OC)cc2)cc1)OCc1ccccc1` (stereo partly drawn) [drawing 657 R1=OBn R2=Ala-Et] it was less than 50 nM; in that of `CCCCOC(=O)C(C)NP(=O)(O)COc1ccc(C[C@H](NC(=O)O[C@H]2CO[C@H]3OCC[C@H]32)[C@H](O)CN(CC(C)C)S(=O)(=O)c2ccc(OC)cc2)cc1` (stereo partly drawn) [drawing 657 R1=OH R2=Ala-Bu], more than 5000 nM; in that of `COc1ccc(S(=O)(=O)N(CC(C)C)C[C@@H](O)[C@H](Cc2ccc(OCP(=O)(O)NC(C)C(=O)O)cc2)NC(=O)O[C@H]2CO[C@H]3OCC[C@H]32)cc1` (stereo partly drawn) [drawing 657 R1=OH R2=Ala-OH], more than 5000 nM.
Regarding `CCCCOC(=O)CNP(=O)(COc1ccc(C[C@H](NC(=O)O[C@H]2CO[C@H]3OCC[C@H]32)[C@H](O)CN(CC(C)C)S(=O)(=O)c2ccc(OC)cc2)cc1)Oc1ccccc1` (stereo partly drawn) [drawing 657 R1=OPh R2=Gly-Ru], the EC50 was 50 to 500 nM.
As for `CCOC(=O)C(C)OP(=O)(COc1ccc(CC(NC(=O)OC2COC3OCCC23)C(O)CN(CC(C)C)S(=O)(=O)c2ccc(OC)cc2)cc1)OCC(F)(F)F` (stereo not drawn) [drawing 658 R1=OCH2CF3 R2=Lac-Et], the EC50 was 50 to 500 nM.
For the compound `CCOC(=O)C(C)OP(=O)(COc1ccc(CC(NC(=O)OC2COC3OCCC23)C(O)CN(CC(C)C)S(=O)(=O)c2ccc(OC)cc2)cc1)OCC` (stereo not drawn) [drawing 658 R1=OEt R2=Lac-Et], the EC50 is 50 to 500 nM.
Turning to `CCOC(=O)COP(=O)(COc1ccc(CC(NC(=O)OC2COC3OCCC23)C(O)CN(CC(C)C)S(=O)(=O)c2ccc(OC)cc2)cc1)Oc1ccccc1` (stereo not drawn) [drawing 658 R1=OPh R2=Glc-Et], the 50% effective concentration (EC50) is less than 50 nM.
On to `COc1ccc(S(=O)(=O)N(CC(C)C)C[C@@H](O)[C@H](Cc2ccc(OCP(=O)(Oc3ccccc3)OC(C)C(=O)OCCN3CCOCC3)cc2)NC(=O)O[C@H]2CO[C@H]3OCC[C@H]32)cc1` (stereo partly drawn) [drawing 658 R1=OPh R2=Lac-EtMor], for which the EC50 is more than 5000 nM.
Same read-out and setting: in the case of `COC(=O)C(C)OP(=O)(COc1ccc(C[C@H](NC(=O)O[C@H]2CO[C@H]3OCC[C@H]32)[C@H](O)CN(CC(C)C)S(=O)(=O)c2ccc(OC)cc2)cc1)Oc1ccccc1` (stereo partly drawn) [drawing 658 R1=OPh R2=Lac-Me] it was 50 to 500 nM; in that of `COc1ccc(S(=O)(=O)N(CC(C)C)C[C@@H](O)[C@H](Cc2ccc(OCP(=O)(Oc3ccccc3)OC(C)C(=O)OCCCN3CCOCC3)cc2)NC(=O)O[C@H]2CO[C@H]3OCC[C@H]32)cc1` (stereo partly drawn) [drawing 658 R1=OPh R2=Lac-PrMor], more than 5000 nM; in that of `CCOC(=O)C(CC)OP(=O)(COc1ccc(CC(NC(=O)OC2COC3OCCC23)C(O)CN(CC(C)C)S(=O)(=O)c2ccc(OC)cc2)cc1)Oc1ccccc1` [drawing 659 R1=OPh R2=(R)Hba-Et], less than 50 nM.
As to `CCOC(=O)C(CC)OP(=O)(COc1ccc(CC(NC(=O)OC2COC3OCCC23)C(O)CN(CC(C)C)S(=O)(=O)c2ccc(OC)cc2)cc1)Oc1ccccc1` [drawing 659 R1=OPh R2=(S)Hba-Et], the EC50 was less than 50 nM.
`CCC(OP(=O)(COc1ccc(CC(NC(=O)OC2COC3OCCC23)C(O)CN(CC(C)C)S(=O)(=O)c2ccc(OC)cc2)cc1)Oc1ccccc1)C(=O)OC(C)(C)C` [drawing 659 R1=OPh R2=(S)Hba-tBu]: the EC50 is less than 50 nM.
For `COc1ccc(S(=O)(=O)N(CC(C)C)C[C@@H](O)[C@H](Cc2ccc(OCP(=O)(Oc3ccccc3)O[C@@H](C)C(=O)OCCN3CCOCC3)cc2)NC(=O)O[C@H]2CO[C@H]3OCC[C@H]32)cc1` (stereo partly drawn) [drawing 659 R1=OPh R2=(S)Lac-EtMor], the EC50 was more than 5000 nM.
With `COc1ccc(S(=O)(=O)N(CC(C)C)C[C@@H](O)[C@H](Cc2ccc(OCP(=O)(Oc3ccccc3)O[C@@H](C)C(=O)OCCN3CCCCC3)cc2)NC(=O)O[C@H]2CO[C@H]3OCC[C@H]32)cc1` (stereo partly drawn) [drawing 659 R1=OPh R2=(S)Lac-EtPip], the half-maximal effective concentration (EC50) is 50 to 500 nM.
The same measure, in the same setting: in the case of `COc1ccc(S(=O)(=O)N(CC(C)C)C[C@@H](O)[C@H](Cc2ccc(OCP(=O)(Oc3ccccc3)O[C@@H](C)C(=O)OCCCN3CCOCC3)cc2)NC(=O)O[C@H]2CO[C@H]3OCC[C@H]32)cc1` (stereo partly drawn) [drawing 659 R1=OPh R2=(S)Lac-PrMor] it was more than 5000 nM.
For `CCOC(=O)[C@H](C)OP(=O)(COc1ccc(C[C@H](NC(=O)O[C@H]2CO[C@H]3OCC[C@H]32)[C@H](O)CN(CC(C)C)S(=O)(=O)c2ccc(OC)cc2)cc1)ON1CCOCC1` (stereo partly drawn) [drawing 660 R1=OMor R2=(S)Lac-Et], the EC50 was more than 5000 nM.
Same read-out and setting: with `CCOC(=O)[C@H](C)OP(=O)(COc1ccc(C[C@H](NC(=O)O[C@H]2CO[C@H]3OCC[C@H]32)[C@H](O)CN(CC(C)C)S(=O)(=O)c2ccc(OC)cc2)cc1)ON(C)C` (stereo partly drawn) [drawing 660 R1=ONMe2 R2=(S)Lac-Et] the figure was 50 to 500 nM.
Same read-out and setting: in the case of `CCOC(=O)[C@H](C)OP(=O)(COc1ccc(C[C@H](NC(=O)O[C@H]2CO[C@H]3OCC[C@H]32)[C@H](O)CN(CC(C)C)S(=O)(=O)c2ccc(OC)cc2)cc1)Oc1cccc(CN2CCOCC2)c1` (stereo partly drawn) [drawing 660 R1=OPh-m-CH2Mor R2=(S)Lac-Et] it was 50 to 500 nM; in that of `CCOC(=O)[C@H](C)OP(=O)(COc1ccc(C[C@H](NC(=O)O[C@H]2CO[C@H]3OCC[C@H]32)[C@H](O)CN(CC(C)C)S(=O)(=O)c2ccc(OC)cc2)cc1)Oc1cccc(CN(C)C)c1` (stereo partly drawn) [drawing 660 R1=OPh-m-CH2NMe2 R2=(S)Lac-Et], 500 to 5000 nM.

Usually EC50 stands for the concentration that produces a half-maximal response.
